Assays:
[1] = test system: Botrytis cinerea; assay: Action against Botrytis cinerea - fungal growth assay; assay type: cell-based; conditions: 0.002% active ingredient, PDB broth, 24° C., photometric after 3-4 days
Experimental: (§1) Conidia of the fungus from cryogenic storage was directly mixed into nutrient broth (PDB potato dextrose broth). After placing a (DMSO) solution of the test compounds (0.002% active ingredient) into a microtiter plate (96-well format) the nutrient broth containing the fungal spores was added. The test plates were incubated at 24° C. and the inhibition of growth was measured photometrically after 3-4 days. The activity of a compound was expressed as fungal growth inhibition (0=no growth inhibition, ratings of 80% to 99% mean good to very good inhibition, 100%=complete inhibition).

[2] = test system: Mycosphaerella arachidis (Cercospora arachidicola [Anamorph]); assay: Action against Mycosphaerella arachidis (early leaf spot of groundnut) - fungal growth assay; assay type: cell-based; conditions: 0.002% active ingredient, PDB broth, 24° C., photometric after 6-7 days
Experimental: as §1, with “storage were” for “storage was”, “after 6-7” for “after 3-4”

[3] = test system: Septoria tritici; assay: Action against Septoria tritici - fungal growth assay; assay type: cell-based; conditions: Zymoseptoria tritici; 0.002% active ingredient, PDB broth, 24° C., photometric after 72 hrs
Experimental: as §1, with “storage were” for “storage was”, “was determined” for “was measured”, “after 72 hrs.” for “after 3-4 days.”

[4] = test system: Monographella nivalis (Anamorph: Fusarium nivale, Microdochium nivale); assay: Action against Monographella nivalis (snow mould) - fungal growth assay; assay type: cell-based; conditions: 0.002% active ingredient, PDB broth, 24° C., photometric after 72 hrs
Experimental: as §1, with “storage were” for “storage was”, “a DMSO-solution” for “a (DMSO) solution”, “after 72 hrs” for “after 3-4 days. The activity of a compound was expressed as fungal growth inhibition”

[5] = test system: Rhizoctonia Solani; assay: Action against Rhizoctonia solani - fungal growth assay; assay type: cell-based; conditions: 0.002% active ingredient, PDB broth, 24° C., photometric after 3-4 days
Experimental: as §1, with “Mycelial fragments of a newly grown liquid culture” for “Conidia”, “were” for “from cryogenic storage was”

[6] = test system: Erysiphe graminis f. sp. tritici; assay: Action against Erysiphe graminis f. sp. tritici (wheat powdery mildew), wheat leaf segments, preventive; assay type: in vivo; conditions: Blumeria graminis, foliar, 168 h; 0.02% active ingredient sprayed on wheat leaf segments, assessed 7 days after inoculation; read-out: preventive fungicidal activity (inhibition)
Experimental: (§2) Wheat leaf segments were placed on agar in multiwell plates (24-well format) and sprayed with test solutions (0.02% active ingredient). After drying, the leaf disks were inoculated with a spore suspension of the fungus. After appropriate incubation the activity of a compound was assessed 7 days after inoculation as preventive fungicidal activity.

[7] = test system: Pyrenophora teres; assay: Action against Pyrenophora teres (net blotch) on barley leaf segments, preventive; assay type: in vivo; conditions: foliar, 96 h, 0.02% active ingredient sprayed on barley leaf segments, assessed 4 days after inoculation, read-out: preventive fungicidal activity (inhibition)
Experimental: as §2, with “Barley” for “Wheat”, “4” for “7”

[8] = test system: Puccinia recondita; assay: Protective action against Puccinia recondita (brown rust) on wheat leaf segments; assay type: in vivo; conditions: foliar, 192 h, 0.02% active ingredient sprayed on wheat leaf segments, assessed 8 days after inoculation, read-out: preventive fungicidal activity (inhibition)
Experimental: as §2, with “8” for “7”

[9] = test system: Puccinia recondita; assay: Curative action against Puccinia recondita (brown rust) on wheat leaf segments; assay type: in vivo; conditions: foliar, 0.02% active ingredient sprayed one day after inoculation of wheat leaf segments, assessed 8 days after inoculation, read-out: curative fungicidal activity (inhibition)
Experimental: Wheat leaf segments were placed on agar in multiwell plates (24-well format) and inoculated with a spore suspension of the fungus. One day after inoculation the leaf segments were sprayed with test solutions (0.02% active ingredient). After appropriate incubation the activity of a compound was assessed 8 days after inoculation as curative fungicidal activity.

Row | Compound | inhibition at 0.002 % strength [1] | inhibition at 0.002 % strength [2] | inhibition at 0.002 % strength [3] | inhibition at 0.002 % strength [4] | inhibition at 0.002 % strength [5] | inhibition at 0.02 % strength [6] | inhibition at 0.02 % strength [7] | inhibition at 0.02 % strength [8] | inhibition at 0.02 % strength [9] | melting point
1 | CON(C(=O)c1cn(C)nc1C(F)F)C(C)C1CCC(C)=CC1(C)C (single isomer, unassigned) [Compound 1.081 Diastereomer A, 3-difluoromethyl-1-methyl-1H-pyrazole-4-carboxylic acid methoxy-[1-(2,2,4-trimethyl-cyclohex-3-enyl)-ethyl]-amide] | ≥ 80% |  |  |  |  |  |  |  |  | 
2 | CON(C(=O)c1cn(C)nc1C(F)F)C(C)C1CC=C(C)CC1 (stereo not drawn) [Compound 1.049] | ≥ 80% | ≥ 80% | ≥ 80% | ≥ 80% | ≥ 80% | ≥ 80% | ≥ 80% |  |  | 
3 | CON(C(=O)c1cn(C)nc1C(F)F)C(C)C1CCC(C)=CC1(C)C (stereo not drawn) [Compound 1.081, 3-difluoromethyl-1-methyl-1H-pyrazole-4-carboxylic acid methoxy-[1-(2,2,4-trimethyl-cyclohex-3-enyl)-ethyl]-amide] | ≥ 80% | ≥ 80% | ≥ 80% | ≥ 80% | ≥ 80% | ≥ 80% | ≥ 80% | ≥ 80% | ≥ 80% | 95 to 105 °C
